Laboratory results taken from ChEMBL document CHEMBL5244219, “Recent developments of quinolone-based derivatives and their activities against Escherichia coli” (Eur J Med Chem, 2018).
≈ marks a conversion by molar mass, not a printed value. Blank lines part the entries; values can stand above or below the molecule they belong to.

Columns and labels:
[1] = system: Escherichia coli; test: Antibacterial activity against Escherichia coli KC-14 assessed as bacterial growth inhibition; type: functional
[2] = Cmax in mouse at 20 mg/kg, po; type: ADME, organism-based; parameters: dose 20 mg/kg, route po; conditions: in vivo
[3] = system: Escherichia coli; test: Antibacterial activity against Escherichia coli KC-14 infected in po dosed mouse assessed as bacterial growth inhibition; type: functional; conditions: Escherichia coli, KC-14, po, read-out: ED50
[4] = Half life in mouse at 20 mg/kg, po; type: ADME, organism-based; conditions: in vivo
[5] = AUC(0 to infinity) in mouse at 20 mg/kg, po; type: ADME, organism-based; parameters: dose 20 mg/kg, route po; conditions: in vivo
[6] = system: Escherichia coli; test: Antibacterial activity against Escherichia coli ATCC 35218 assessed as bacterial growth inhibition incubated for 18 hrs by agar dilution method; type: functional
[7] = system: Escherichia coli; test: Antibacterial activity against Escherichia coli H560 assessed as bacterial growth inhibition; type: functional
[8] = system: Escherichia coli; test: Antibacterial activity against Escherichia coli NCTC 10418 assessed as bacterial growth inhibition incubated for 18 to 20 hrs by agar dilution method; type: functional; conditions: time 18-20 hrs
[9] = system: Escherichia coli; test: Antibacterial activity against Escherichia coli assessed as bacterial growth inhibition by microdilution method; type: functional
[10] = system: Escherichia coli; test: Antibacterial activity against Escherichia coli TolC assessed as bacterial growth inhibition; type: functional
[11] = system: Escherichia coli; test: Antibacterial activity against Escherichia coli assessed as bacterial growth inhibition by agar dilution method; type: functional
[12] = system: Escherichia coli; test: Antibacterial activity against Escherichia coli ATCC 700603 assessed as bacterial growth inhibition by agar dilution method; type: functional
[13] = system: Escherichia coli; test: Potency index, ratio of ciprofloxacin MIC to compound IC50 for antibacterial activity against Escherichia coli DH52; type: functional; conditions: time 24 hrs
[14] = system: Escherichia coli; test: Potency index, ratio of norfloxacin MIC to compound IC50 for antibacterial activity against Escherichia coli DH52; type: functional
[15] = system: Escherichia coli; test: Potency index, ratio of ciprofloxacin MIC to compound IC50 for antibacterial activity against Escherichia coli JM109; type: functional
[16] = system: Escherichia coli; test: Potency index, ratio of norfloxacin MIC to compound IC50 for antibacterial activity against Escherichia coli JM109; type: functional
[17] = system: Escherichia coli; test: Antibacterial activity against Escherichia coli JM109 assessed as bacterial growth inhibition; type: functional
[18] = system: Escherichia coli; test: Antibacterial activity against Escherichia coli DH52 assessed as bacterial growth inhibition; type: functional
[19] = system: Escherichia coli; test: Antibacterial activity against Escherichia coli assessed as bacterial growth inhibition incubated for 18 to 20 hrs by agar dilution method; type: functional; conditions: time 18-20 hrs
[20] = system: Escherichia coli; test: Antibacterial activity against Escherichia coli DC0 assessed as bacterial growth inhibition by agar dilution method; type: functional
[21] = system: Escherichia coli; test: Antibacterial activity against Escherichia coli DC2 assessed as bacterial growth inhibition by agar dilution method; type: functional
[22] = AUC in marmoset at 3 mg/kg, iv; type: ADME, organism-based; parameters: dose 3 mg/kg, route iv; conditions: callitrichinae sp., in vivo
[23] = Half life in marmoset at 3 mg/kg, iv; type: ADME, organism-based; conditions: callitrichinae sp., in vivo
[24] = system: Escherichia coli; test: Antibacterial activity against Escherichia coli ATCC 8739 assessed as bacterial growth inhibition; type: functional
[25] = system: Escherichia coli; test: Antibacterial activity against Escherichia coli ISF 432 assessed as bacterial growth inhibition; type: functional
[26] = system: Escherichia coli; test: Antibacterial activity against Escherichia coli K-12 C600 assessed as bacterial growth inhibition; type: functional
[27] = system: Escherichia coli; test: Antibacterial activity against Escherichia coli assessed as bacterial growth inhibition incubated for 18 hrs by agar dilution method; type: functional

MIC [1]: 0.025 µg/mL (≈ 0.0688 µM)
Cmax [2]: 940 ng/mL
half-life [4]: 2.8 h
AUC(0-inf) [5]: 2600 ng·h/mL
SMILES: CC1Sc2c(C(=O)O)c(=O)c3cc(F)c(N4CCN(C)CC4)cc3n21 (stereo unspecified)
ED50 [3]: 0.97 mg/kg

MIC [6]: < 0.008 µg/mL
SMILES: CO/N=C1\CN(c2nc3c(cc2F)c(=O)c(C(=O)O)cn3[C@@H]2C[C@@H]2F)CC1CN (stereo partly specified)

MIC [7]: ≤ 0.003 µg/mL
SMILES: NC1CCN(c2nc3c(cc2F)c(=O)c(C(=O)O)cn3-c2ccc(F)cc2F)C1 (stereo unspecified) [TOSUFLOXACIN]

MIC [8]: ≤ 0.018 µg/mL
SMILES: CCn1cc(C(=O)O)c(=O)c2cc(F)c(N3CCN(CN4C(=O)/C(=N/NC(N)=S)c5ccccc54)CC3)cc21

MIC [9]: ≥ 0.5 µg/mL
SMILES: CC(=O)NC[C@H]1CN(c2ccc(N[C@@H]3CCN(c4nc5c(cc4F)c(=O)c(C(=O)O)cn5C4CC4)C3)c(F)c2)C(=O)O1

MIC [9]: ≥ 0.5 µg/mL
SMILES: CC(=O)NC[C@H]1CN(c2ccc(NC3CN(c4nc5c(cc4F)c(=O)c(C(=O)O)cn5C4CC4)C3)c(F)c2)C(=O)O1

MIC [6]: < 0.008 µg/mL
SMILES: COc1ccccc1CO/N=C1\CCN(c2c(F)cc3c(=O)c(C(=O)O)cn(C4CC4)c3c2OC)CC1N (stereo unspecified)

MIC [10]: 11.5 µg/mL (≈ 28.7 µM)
MIC90 [11]: 4 µg/mL (≈ 9.96 µM)
MIC [7]: 0.006 µg/mL (≈ 0.0149 µM)
SMILES: COc1c(N2C[C@@H]3CCCN[C@@H]3C2)c(F)cc2c(=O)c(C(=O)O)cn(C3CC3)c12 [MOXIFLOXACIN]

MIC [12]: 1 µg/mL (≈ 2.73 µM)
SMILES: NC1CCN(c2c(F)cc3c(=O)c(C(=O)O)cn(C4CC4)c3c2Cl)C1 (stereo unspecified) [CLINAFLOXACIN]

MIC [17]: 0.125 µg/mL (≈ 0.197 µM)
MIC [18]: 0.125 µg/mL (≈ 0.197 µM)
SMILES: Cc1c(N2CCN(Cc3nc4ccccc4n3Cc3ccc(Cl)cc3Cl)CC2)c(F)cc2c(=O)c(C(=O)O)cn(C3CC3)c12
Ratio [13]: 2
Ratio [14]: 2
Ratio [15]: 2
Ratio [16]: 2

MIC [19]: 0.02 µg/mL (≈ 0.0248 µM)
SMILES: COc1cc(Cc2cnc(/N=C3\C(=O)N(CN4CCN(c5c(F)cc6c(=O)c(C(=O)O)cn(C7CC7)c6c5OC)CC4C)c4ccccc43)nc2N)cc(OC)c1OC (stereo unspecified)

SMILES: CC(C)(O/N=C(\C(=O)N[C@@H]1C(=O)N2C(C(=O)[O-])=C(C[n+]3ccccc3)CS[C@H]12)c1csc(N)n1)C(=O)O [CEFTAZIDIME]
MIC [20]: 0.06 µg/mL (≈ 0.11 µM)
MIC [21]: 0.06 µg/mL (≈ 0.11 µM)
AUC [22]: 14000 ng·h/mL
half-life [23]: 0.7 h

MIC [24]: 0.008 µg/mL (≈ 0.0205 µM)
MIC [25]: 0.008 µg/mL (≈ 0.0205 µM)
SMILES: Cc1c(N2CCc3ccccc3C2)c(N)cc2c(=O)c(C(=O)O)cn(C3CC3)c12

MIC [8]: ≤ 0.018 µg/mL
SMILES: CCn1cc(C(=O)O)c(=O)c2cc(F)c(N3CCN(CN4C(=O)C(=O)c5ccccc54)CC3)cc21

MIC [19]: 0.0095 µg/mL (≈ 0.0125 µM)
SMILES: COc1cc(Cc2cnc(/N=C3\C(=O)N(CN4CCN(c5cc6c(cc5F)c(=O)c(C(=O)O)cn6C5CC5)CC4)c4ccccc43)nc2N)cc(OC)c1OC

MIC [7]: ≤ 0.003 µg/mL
SMILES: Cc1c(N2C[C@@H](F)[C@@H](C3(N)CC3)C2)c(F)c(N)c2c(=O)c(C(=O)O)cn([C@@H]3C[C@@H]3F)c12 [DQ-113]

MIC [9]: ≥ 0.5 µg/mL
SMILES: CC(=O)NC[C@H]1CN(c2ccc(N[C@@H]3CCN(c4cc5c(cc4F)c(=O)c(C(=O)O)cn5C4CC4)C3)c(F)c2)C(=O)O1

MIC [1]: 0.1 µg/mL (≈ 0.254 µM)
Cmax [2]: 840 ng/mL
half-life [4]: 4.9 h
AUC(0-inf) [5]: 2700 ng·h/mL
SMILES: COc1c(N2CCN(C)CC2)c(F)cc2c(=O)c(C(=O)O)c3n(c12)C(C)S3 (stereo unspecified)
ED50 [3]: 1.28 mg/kg

MIC [9]: ≥ 0.5 µg/mL
SMILES: CC(=O)NC[C@H]1CN(c2ccc(N3CCN(c4cc5c(cc4F)c(=O)c(C(=O)O)cn5C4CC4)CC3)c(F)c2)C(=O)O1

MIC [17]: 0.125 µg/mL (≈ 0.271 µM)
MIC [18]: 0.125 µg/mL (≈ 0.271 µM)
SMILES: Cc1c(N2CCN(c3nc4ccccc4[nH]3)CC2)c(F)cc2c(=O)c(C(=O)O)cn(C3CC3)c12
Ratio [13]: 2
Ratio [14]: 2
Ratio [15]: 2
Ratio [16]: 2

MIC [6]: < 0.008 µg/mL
SMILES: COc1cccc(CO/N=C2\CCN(c3c(F)cc4c(=O)c(C(=O)O)cn(C5CC5)c4c3OC)CC2N)c1OC (stereo unspecified)

MIC [8]: ≤ 0.018 µg/mL
SMILES: CCn1cc(C(=O)O)c(=O)c2cc(F)c(N3CCN(CN4C(=O)/C(=N/NC(N)=S)c5cc(Cl)ccc54)CC3)cc21

MIC [1]: 0.2 µg/mL (≈ 0.55 µM)
MIC [26]: 0.2 µg/mL (≈ 0.55 µM)
SMILES: CN1CCN(c2cc3c(cc2F)c(=O)c(C(=O)O)c2n3CCS2)CC1

MIC [27]: ≤ 0.006 µg/mL
SMILES: COc1c(N2C[C@@H](N)C3(CC3)C2)c(F)cc2c(=O)c(C(=O)O)cn([C@@H]3C[C@@H]3F)c12

MIC [24]: 0.008 µg/mL (≈ 0.0215 µM)
MIC [25]: 0.008 µg/mL (≈ 0.0215 µM)
SMILES: Cc1c(N2CC(C)OC(C)C2)c(N)cc2c(=O)c(C(=O)O)cn(C3CC3)c12 (stereo unspecified)
